Test results published in PubChem BioAssay (NCI).
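Following 48 hours of exposure in 96-well plates, responses at five concentrations were used to interpolate endpoints linearly. At the GI50, growth is halved. TGI is the concentration that stops growth completely.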

Experiments:
Test in all cases: growth of human tumour cells (NCI), 48 h
NCI-H23 lung = system: NCI-H23 lung
U251 CNS = system: U251 CNS
HCT-15 colon = system: HCT-15 colon
HCT-116 colon = system: HCT-116 colon
PC-3 prostate = system: PC-3 prostate
TK-10 renal = system: TK-10 renal
COLO 205 colon = system: COLO 205 colon
ACHN renal = system: ACHN renal
MDA-MB-435 = system: MDA-MB-435
MDA-MB-231 breast = system: MDA-MB-231 breast
RXF 393 renal = system: RXF 393 renal
HS 578T breast = system: HS 578T breast
CAKI-1 renal = system: CAKI-1 renal
T-47D breast = system: T-47D breast
NCI-H460 lung = system: NCI-H460 lung
UO-31 renal = system: UO-31 renal
UACC-257 melanoma = system: UACC-257 melanoma
SF-268 CNS = system: SF-268 CNS
OVCAR-4 ovarian = system: OVCAR-4 ovarian
IGROV1 ovarian = system: IGROV1 ovarian
SNB-19 CNS = system: SNB-19 CNS
BT-549 breast = system: BT-549 breast
A549 NSCLC = system: A549 NSCLC
RPMI-8226 leukemia = system: RPMI-8226 leukemia
OVCAR-5 ovarian = system: OVCAR-5 ovarian
MCF7 breast = system: MCF7 breast
CCRF-CEM leukemia = system: CCRF-CEM leukemia
SK-MEL-5 melanoma = system: SK-MEL-5 melanoma
SW-620 colon = system: SW-620 colon
DU-145 prostate = system: DU-145 prostate
OVCAR-8 ovarian = system: OVCAR-8 ovarian
SNB-75 CNS = system: SNB-75 CNS
HT29 colon = system: HT29 colon
SK-MEL-28 melanoma = system: SK-MEL-28 melanoma
NCI-H522 lung = system: NCI-H522 lung
M14 melanoma = system: M14 melanoma
SK-MEL-2 melanoma = system: SK-MEL-2 melanoma
K-562 leukemia = system: K-562 leukemia
A498 renal = system: A498 renal
SR leukemia = system: SR leukemia
786-0 renal = system: 786-0 renal
HOP-92 NSCLC = system: HOP-92 NSCLC
SF-539 CNS = system: SF-539 CNS
NCI-H226 lung = system: NCI-H226 lung
NCI/ADR-RES ovarian = system: NCI/ADR-RES ovarian
MOLT-4 leukemia = system: MOLT-4 leukemia
SN12C renal = system: SN12C renal
SK-OV-3 ovarian = system: SK-OV-3 ovarian
KM12 colon = system: KM12 colon
OVCAR-3 ovarian = system: OVCAR-3 ovarian
UACC-62 melanoma = system: UACC-62 melanoma
MALME-3M melanoma = system: MALME-3M melanoma
SF-295 CNS = system: SF-295 CNS
HCC-2998 colon = system: HCC-2998 colon
HOP-62 NSCLC = system: HOP-62 NSCLC
LOX IMVI melanoma = system: LOX IMVI melanoma
HL-60(TB) leukemia = system: HL-60(TB) leukemia

SMILES: O=C(NNC(=S)Nc1ccc(Br)cc1)c1cc(-c2ccccc2)nc2ccccc12
- TGI (NCI-H23 lung): 55.8 µM
- TGI (U251 CNS): 32.5 µM
- TGI (HCT-15 colon): 66.9 µM
- TGI (HCT-116 colon): 30.4 µM
- TGI (PC-3 prostate): 46.3 µM
- TGI (TK-10 renal): 42.2 µM
- TGI (COLO 205 colon): 53 µM
- TGI (ACHN renal): > 100 µM
- TGI (MDA-MB-435): 43.2 µM
- TGI (MDA-MB-231 breast): 65.9 µM
- TGI (RXF 393 renal): 40.4 µM
- TGI (HS 578T breast): 94.2 µM
- TGI (CAKI-1 renal): 72.6 µM
- TGI (T-47D breast): 60.9 µM
- TGI (NCI-H460 lung): 43.5 µM
- TGI (UO-31 renal): 36.4 µM
- TGI (UACC-257 melanoma): 61.4 µM
- TGI (SF-268 CNS): > 100 µM
- TGI (OVCAR-4 ovarian): 46.5 µM
- TGI (IGROV1 ovarian): > 100 µM
- TGI (SNB-19 CNS): > 100 µM
- TGI (BT-549 breast): 60.9 µM
- TGI (A549 NSCLC): 58 µM
- TGI (RPMI-8226 leukemia): 53.7 µM
- TGI (OVCAR-5 ovarian): 79.3 µM
- TGI (MCF7 breast): 47.1 µM
- TGI (CCRF-CEM leukemia): 42.8 µM
- TGI (SK-MEL-5 melanoma): 30.5 µM
- TGI (SW-620 colon): 46.9 µM
- TGI (DU-145 prostate): 40.8 µM
- TGI (OVCAR-8 ovarian): 57.7 µM
- TGI (SNB-75 CNS): > 100 µM
- TGI (HT29 colon): 82.4 µM
- TGI (SK-MEL-28 melanoma): 53 µM
- TGI (NCI-H522 lung): 59 µM
- TGI (M14 melanoma): 34.8 µM
- TGI (SK-MEL-2 melanoma): 41.7 µM
- TGI (K-562 leukemia): 89.8 µM
- TGI (A498 renal): 28.6 µM
- TGI (SR leukemia): 40.6 µM
- TGI (786-0 renal): 33.2 µM
- TGI (HOP-92 NSCLC): 43.4 µM
- TGI (SF-539 CNS): 31.3 µM
- TGI (NCI-H226 lung): 73.7 µM
- TGI (NCI/ADR-RES ovarian): 51.8 µM
- TGI (MOLT-4 leukemia): 52.9 µM
- TGI (SN12C renal): 37.1 µM
- TGI (SK-OV-3 ovarian): 47.5 µM
- TGI (KM12 colon): > 100 µM
- TGI (OVCAR-3 ovarian): 33.1 µM
- TGI (UACC-62 melanoma): 50.2 µM
- TGI (MALME-3M melanoma): 43.6 µM
- TGI (SF-295 CNS): 38.3 µM
- TGI (HCC-2998 colon): 30.8 µM
- TGI (HOP-62 NSCLC): 42 µM

SMILES: CCN(Cc1ccccc1Cl)c1ccc(CO)c(Cl)c1
- GI50 (NCI-H23 lung): 7.44 µM
- TGI (NCI-H23 lung): 22.6 µM
- GI50 (U251 CNS): 0.943 µM
- TGI (U251 CNS): 15 µM
- GI50 (HCT-15 colon): 10.2 µM
- TGI (HCT-15 colon): 24 µM
- GI50 (HCT-116 colon): 0.131 µM
- TGI (HCT-116 colon): 11.8 µM
- GI50 (PC-3 prostate): 12.5 µM
- TGI (PC-3 prostate): 25.8 µM
- GI50 (TK-10 renal): < 0.0334 µM
- TGI (TK-10 renal): 0.257 µM
- GI50 (COLO 205 colon): 5.72 µM
- TGI (COLO 205 colon): 16.3 µM
- GI50 (ACHN renal): 13.7 µM
- TGI (ACHN renal): 27.3 µM
- GI50 (MDA-MB-435): 9.19 µM
- TGI (MDA-MB-435): 23.9 µM
- GI50 (MDA-MB-231 breast): 13.1 µM
- TGI (MDA-MB-231 breast): 26.2 µM
- GI50 (RXF 393 renal): 3.75 µM
- TGI (RXF 393 renal): 20 µM
- GI50 (HS 578T breast): 16 µM
- TGI (HS 578T breast): 38.7 µM
- GI50 (CAKI-1 renal): 5.82 µM
- TGI (CAKI-1 renal): 21 µM
- GI50 (T-47D breast): 0.06 µM
- TGI (T-47D breast): 0.522 µM
- GI50 (NCI-H460 lung): 0.296 µM
- TGI (NCI-H460 lung): 11.1 µM
- GI50 (UO-31 renal): 9.15 µM
- TGI (UO-31 renal): 24.9 µM
- GI50 (UACC-257 melanoma): 0.094 µM
- TGI (UACC-257 melanoma): 0.461 µM
- GI50 (SF-268 CNS): 15.5 µM
- TGI (SF-268 CNS): 30 µM
- GI50 (OVCAR-4 ovarian): 0.368 µM
- TGI (OVCAR-4 ovarian): 9.36 µM
- GI50 (IGROV1 ovarian): < 0.0418 µM
- TGI (IGROV1 ovarian): 0.138 µM
- GI50 (SNB-19 CNS): 13.2 µM
- TGI (SNB-19 CNS): 26.3 µM
- GI50 (LOX IMVI melanoma): 16 µM
- TGI (LOX IMVI melanoma): 30.5 µM
- GI50 (BT-549 breast): 15.8 µM
- TGI (BT-549 breast): 29.9 µM
- GI50 (A549 NSCLC): 3.06 µM
- TGI (A549 NSCLC): 18.7 µM
- GI50 (RPMI-8226 leukemia): 1.91 µM
- TGI (RPMI-8226 leukemia): 19 µM
- GI50 (OVCAR-5 ovarian): 0.206 µM
- TGI (OVCAR-5 ovarian): 0.789 µM
- GI50 (MCF7 breast): 0.442 µM
- TGI (MCF7 breast): 12.1 µM
- GI50 (CCRF-CEM leukemia): 16.6 µM
- TGI (CCRF-CEM leukemia): 38.3 µM
- GI50 (SK-MEL-5 melanoma): 4.11 µM
- TGI (SK-MEL-5 melanoma): 17.1 µM
- GI50 (SW-620 colon): 1.61 µM
- TGI (SW-620 colon): 16.8 µM
- GI50 (DU-145 prostate): 14 µM
- TGI (DU-145 prostate): 27.8 µM
- GI50 (OVCAR-8 ovarian): 12.8 µM
- TGI (OVCAR-8 ovarian): 27.1 µM
- GI50 (SNB-75 CNS): 7.13 µM
- TGI (SNB-75 CNS): 21.8 µM
- GI50 (HT29 colon): 5.94 µM
- TGI (HT29 colon): 20 µM
- GI50 (SK-MEL-28 melanoma): 11.8 µM
- TGI (SK-MEL-28 melanoma): 24.7 µM
- GI50 (NCI-H522 lung): 11.5 µM
- TGI (NCI-H522 lung): 25.4 µM
- GI50 (M14 melanoma): 15.3 µM
- TGI (M14 melanoma): 31.7 µM
- GI50 (SK-MEL-2 melanoma): 2.39 µM
- TGI (SK-MEL-2 melanoma): 16.1 µM
- GI50 (K-562 leukemia): 1.63 µM
- TGI (K-562 leukemia): 14.6 µM
- GI50 (A498 renal): < 0.0219 µM
- TGI (A498 renal): 0.0672 µM
- GI50 (SR leukemia): 17.3 µM
- TGI (SR leukemia): 45.1 µM
- GI50 (786-0 renal): 12.8 µM
- TGI (786-0 renal): 26.1 µM
- GI50 (HOP-92 NSCLC): 0.932 µM
- TGI (HOP-92 NSCLC): 8.25 µM
- GI50 (SF-539 CNS): 15 µM
- TGI (SF-539 CNS): 29 µM
- GI50 (NCI-H226 lung): 0.0295 µM
- TGI (NCI-H226 lung): 0.122 µM
- GI50 (NCI/ADR-RES ovarian): 12.2 µM
- TGI (NCI/ADR-RES ovarian): 26.5 µM
- GI50 (MOLT-4 leukemia): 15.8 µM
- TGI (MOLT-4 leukemia): 38.1 µM
- GI50 (HL-60(TB) leukemia): 13.9 µM
- TGI (HL-60(TB) leukemia): 33.8 µM
- GI50 (SN12C renal): 11.5 µM
- TGI (SN12C renal): 24 µM
- GI50 (SK-OV-3 ovarian): 8.82 µM
- TGI (SK-OV-3 ovarian): 21.2 µM
- GI50 (KM12 colon): 13.4 µM
- TGI (KM12 colon): 28.7 µM
- GI50 (OVCAR-3 ovarian): 0.774 µM
- TGI (OVCAR-3 ovarian): 4.32 µM
- GI50 (UACC-62 melanoma): 0.152 µM
- TGI (UACC-62 melanoma): 1.63 µM
- GI50 (MALME-3M melanoma): 13.6 µM
- TGI (MALME-3M melanoma): 28.1 µM
- GI50 (SF-295 CNS): 0.775 µM
- TGI (SF-295 CNS): 7.45 µM
- GI50 (HCC-2998 colon): 11.9 µM
- TGI (HCC-2998 colon): 25.4 µM
- GI50 (HOP-62 NSCLC): 2.46 µM
- TGI (HOP-62 NSCLC): 16.1 µM
